Measured values taken from US9067894B1, “Compound, composition, and method of activating GIRK potassium channel and use of same for treating conditions of interest” (Vanderbilt University, priority 2013, dated 2015).

Tests used:
[1] = molecular target: T1, GIRK1/4 (Homo sapiens, UniProt P48544+P48549); assay: Thallium flux assay, HEK-293 cells expressing GIRK1/4; assay type: cell-based; conditions: cell line GIRK1-4; average ± SEM
T1 construct: expressed in transfected cells; host or cells: HEK-293
T1 sequence (P48549 1-501): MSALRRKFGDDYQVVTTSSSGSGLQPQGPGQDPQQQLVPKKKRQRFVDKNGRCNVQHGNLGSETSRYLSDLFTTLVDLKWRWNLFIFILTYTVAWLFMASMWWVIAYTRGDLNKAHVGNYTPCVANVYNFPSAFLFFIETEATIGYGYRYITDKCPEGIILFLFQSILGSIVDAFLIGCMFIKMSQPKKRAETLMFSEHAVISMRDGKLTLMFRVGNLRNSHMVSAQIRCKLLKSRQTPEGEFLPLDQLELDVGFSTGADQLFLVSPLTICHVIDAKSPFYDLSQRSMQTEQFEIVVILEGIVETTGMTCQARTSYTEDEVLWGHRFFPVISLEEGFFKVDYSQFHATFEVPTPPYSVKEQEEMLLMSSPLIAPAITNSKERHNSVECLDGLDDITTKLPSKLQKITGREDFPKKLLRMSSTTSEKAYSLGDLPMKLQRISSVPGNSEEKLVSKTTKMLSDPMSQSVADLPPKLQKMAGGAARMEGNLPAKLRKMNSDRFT
T1 sequence (P48544 1-419): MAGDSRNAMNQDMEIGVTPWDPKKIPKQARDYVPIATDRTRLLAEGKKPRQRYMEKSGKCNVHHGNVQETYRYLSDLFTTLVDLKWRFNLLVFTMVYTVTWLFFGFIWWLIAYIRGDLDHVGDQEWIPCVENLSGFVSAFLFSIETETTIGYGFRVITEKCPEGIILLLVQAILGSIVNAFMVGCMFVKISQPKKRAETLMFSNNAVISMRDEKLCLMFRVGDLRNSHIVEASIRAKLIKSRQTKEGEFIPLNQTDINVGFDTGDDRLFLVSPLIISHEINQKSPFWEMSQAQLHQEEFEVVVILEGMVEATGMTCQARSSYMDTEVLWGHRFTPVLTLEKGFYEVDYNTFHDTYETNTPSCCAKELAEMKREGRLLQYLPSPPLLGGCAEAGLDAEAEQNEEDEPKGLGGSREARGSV
From the text: Cell Line Construction and Cell Culture. HEK-293 cells co-expressing human GIRK1/2 and rat mGlu8 were generated as previously described (Niswender et al., 2008). A HEK-293 cell line (ATCC, Manassas, Va.) expressing human GIRK1 and human GIRK2 was constructed by transfecting HEK-293 cells with GIRK1 and GIRK2 (Origene, Rockville, Md.) cloned into the pBudCE4.1 vector (Life Technologies, Carlsbad, Calif.) using FuGene 6 (Promega, Madison, Wis.) transfection reagent. Unless otherwise noted, other ion channel-expressing cells were prepared by transfecting HEK-293 cells with individual or combinations of subunits: GIRK1, pCMV6-A-BSD; GIRK2, pCMV6-A-puro; GIRK3, pCMV6-A-hygro; GIRK4, pCMV6-A-AC; Kv7.4, pIRESneo3. The Kir2.1 and hERG-expressing cell lines were made by transfecting T-REx-293 cells (Life Technologies, Carlsbad, Calif.) with Kir2.1 and Kv11.1, respectively, cloned into pcDNA5TO. Monoclonal cell lines were produced by limiting-dilution cloning of antibiotic-resistant cells and functional selection using the thallium flux assay described below. Unless otherwise noted, cells were maintained in Minimal Essential Medium, Alpha Medium (Mediatech, Manassas, Va.) supplemented with 10% fetal bovine serum (Sigma-Aldrich, Saint Louis, Mo.) and GlutaGro (Mediatech, Manassas, Va.), referred to henceforth as cell culture medium. […]

[2] = molecular target: T2, Opiate (KOP) (Homo sapiens, UniProt P41145); assay: Radioligand displacement (Ricerca); assay type: binding
T2 construct: Ricerca (contract laboratory that ran the panel)
T2 sequence (P41145 whole entry): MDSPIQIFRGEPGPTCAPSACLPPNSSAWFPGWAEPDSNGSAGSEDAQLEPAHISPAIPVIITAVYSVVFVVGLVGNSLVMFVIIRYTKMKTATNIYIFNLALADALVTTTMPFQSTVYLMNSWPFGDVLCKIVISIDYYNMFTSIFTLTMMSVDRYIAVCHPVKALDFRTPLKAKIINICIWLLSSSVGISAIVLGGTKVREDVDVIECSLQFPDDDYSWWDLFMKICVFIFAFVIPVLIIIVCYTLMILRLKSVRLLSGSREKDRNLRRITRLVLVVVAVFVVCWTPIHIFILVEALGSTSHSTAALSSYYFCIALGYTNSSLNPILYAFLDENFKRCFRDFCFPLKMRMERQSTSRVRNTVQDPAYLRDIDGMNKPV

In the case of Cc1cc(NC(=O)Nc2ccc(F)c(F)c2)n(-c2ccccc2)n1 [VU0456810, 1-(3,4-difluorophenyl)-3-(3-methyl-1-phenyl-1H-pyrazol-5-yl)urea], the EC50 [1] is reported as 887 ± 266 nM, the “EC50 Thallium Flux” value [1] is reported as “able to activate” and the inhibition at 10 µM [2] is reported as 1%.
